{"source": "paper PMC8847198", "about": "“The Influence of AA29504 on GABAA Receptor Ligand Binding Properties and Its Implications on Subtype Selectivity” (Neurochemical Research, 2021)", "key": {"[1]": {"test_system": "native GABAARs expressed in WT forebrain membranes", "format": "binding, mouse", "conditions": "read-out: IC50 of agonist-induced [^3H]EBOB displacement", "protocol": "(§1) WT and δKO forebrain membranes were prepared using the method of Squires and Saederup as modified by Uusi-Oukari et al.. Homogenized and washed membranes were suspended in 10 mM Tris–HCl, pH 7.4 and stored at -70 °C.\n(§2) Triplicate samples were incubated with shaking for 2 h. […] The incubations were terminated as described above for [^3H]muscimol binding.\n(§3) GraphPad Prism software (GraphPad, San Diego, CA, USA) was used for nonlinear least squares curve-fitting and statistical testing of association, dissociation, saturation binding and radioligand displacement data. The association and dissociation curves were used for the estimation of association (Kon) and dissociation (Koff) rate constants. Saturation binding curves were used for the estimation of total number of high-affinity binding sites (Bmax), and equilibrium dissociation constants (KD). […] Statistical comparisons were made with One-way ANOVA, Two-way ANOVA or Brown-Forsythe and Welch ANOVA followed by the relevant (Tukey’s or Dunnett’s) post hoc tests for multiple comparisons. […] The study samples were not randomized and analysis was performed in a parallel unblinded mode."}, "[2]": {"test_system": "native GABAARs expressed in δKO forebrain membranes", "format": "binding, mouse", "conditions": "read-out: IC50 of agonist-induced [^3H]EBOB displacement", "protocol": "as §1, §2, §3"}, "[3]": {"molecular_target": "GABAARs in δKO mouse forebrain membranes", "experiment": "Saturation analysis of [^3H]muscimol binding, δKO forebrain membranes", "conditions": "one-site model", "protocol": "as §1\n(§4) The effect of AA29504 on the association and dissociation of [^3H]muscimol binding was measured essentially as described by Benkherouf et al.. Saturation analysis of [^3H]muscimol was performed essentially as described by Uusi-Oukari and Korpi. Triplicate samples of the membranes were incubated in assay buffer with a concentration series of [^3H]muscimol (1–50 nM) at room temperature (22 °C) for 60 min in the absence and presence of 10 µM AA29504. […] .\nGraphPad Prism software (GraphPad, San Diego, CA, USA) was used for nonlinear least squares curve-fitting and statistical testing of association, dissociation, saturation binding and radioligand displacement data. The association and dissociation curves were used for the estimation of association (Kon) and dissociation (Koff) rate constants. Saturation binding curves were used for the estimation of total number of high-affinity binding sites (Bmax), and equilibrium dissociation constants (KD). […] . Statistical comparisons were made with One-way ANOVA, Two-way ANOVA or Brown-Forsythe and Welch ANOVA followed by the relevant (Tukey’s or Dunnett’s) post hoc tests for multiple comparisons. […] . […]"}, "[4]": {"molecular_target": "GABAARs in WT mouse forebrain membranes", "experiment": "Saturation analysis of [^3H]muscimol binding, WT forebrain membranes", "protocol": "as §1, §4\n(§5) GraphPad Prism software (GraphPad, San Diego, CA, USA) was used for nonlinear least squares curve-fitting and statistical testing of association, dissociation, saturation binding and radioligand displacement data. The association and dissociation curves were used for the estimation of association (Kon) and dissociation (Koff) rate constants. Saturation binding curves were used for the estimation of total number of high-affinity binding sites (Bmax), and equilibrium dissociation constants (KD). […] . Statistical comparisons were made with One-way ANOVA, Two-way ANOVA or Brown-Forsythe and Welch ANOVA followed by the relevant (Tukey’s or Dunnett’s) post hoc tests for multiple comparisons. […] . The study samples were not randomized and analysis was performed in a parallel unblinded mode."}, "[5]": {"test_system": "GABAARs in δKO forebrain membranes", "experiment": "[^3H]muscimol association and dissociation, δKO forebrain membranes", "format": "binding, mouse", "protocol": "as §1, §4, §5"}, "[6]": {"test_system": "GABAARs in WT forebrain membranes", "experiment": "[^3H]muscimol association and dissociation, WT forebrain membranes", "format": "binding, mouse", "protocol": "as §1, §4, §5"}, "[7]": {"set-up": "method as in PMID 31736685", "conditions": "in vivo; cited from earlier work"}, "[8]": {"set-up": "method as in PMID 20060846, PMID 22579928, PMID 20957350", "conditions": "60 min post 2 mg/kg, s.c. in mice; cited from earlier work"}, "[9]": {"test_system": "native GABAARs expressed in δKO mice forebrain membranes", "experiment": "AA29504 effect on [^3H]muscimol binding, δKO forebrain membranes", "set-up": "species or system mouse", "conditions": "increasing concentrations of AA29504, 15 min, 22 °C", "protocol": "as §1"}, "[10]": {"molecular_target": "T1, recombinant α6β3γ2 GABAARs expressed in HEK293 cells (Rattus norvegicus, UniProt P18508+P30191+P63079)", "T1 construct": "expressed in transfected cells; host or cells: HEK293, transient calcium phosphate transfection, pRK5 plasmids, 1:1:1", "T1 sequence (P30191 20-453)": "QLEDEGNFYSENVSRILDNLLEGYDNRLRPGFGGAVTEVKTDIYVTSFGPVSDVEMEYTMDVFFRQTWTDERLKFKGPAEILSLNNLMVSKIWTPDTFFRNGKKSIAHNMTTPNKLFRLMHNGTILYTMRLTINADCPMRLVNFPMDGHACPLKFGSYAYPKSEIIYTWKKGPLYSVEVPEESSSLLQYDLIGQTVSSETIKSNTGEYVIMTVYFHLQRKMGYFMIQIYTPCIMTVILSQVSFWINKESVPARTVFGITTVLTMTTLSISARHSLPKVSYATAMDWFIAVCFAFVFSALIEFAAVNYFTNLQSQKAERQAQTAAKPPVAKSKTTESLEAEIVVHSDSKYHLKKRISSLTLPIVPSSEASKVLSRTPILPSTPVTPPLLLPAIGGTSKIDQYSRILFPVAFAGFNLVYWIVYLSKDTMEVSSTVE", "T1 sequence (P63079 26-473)": "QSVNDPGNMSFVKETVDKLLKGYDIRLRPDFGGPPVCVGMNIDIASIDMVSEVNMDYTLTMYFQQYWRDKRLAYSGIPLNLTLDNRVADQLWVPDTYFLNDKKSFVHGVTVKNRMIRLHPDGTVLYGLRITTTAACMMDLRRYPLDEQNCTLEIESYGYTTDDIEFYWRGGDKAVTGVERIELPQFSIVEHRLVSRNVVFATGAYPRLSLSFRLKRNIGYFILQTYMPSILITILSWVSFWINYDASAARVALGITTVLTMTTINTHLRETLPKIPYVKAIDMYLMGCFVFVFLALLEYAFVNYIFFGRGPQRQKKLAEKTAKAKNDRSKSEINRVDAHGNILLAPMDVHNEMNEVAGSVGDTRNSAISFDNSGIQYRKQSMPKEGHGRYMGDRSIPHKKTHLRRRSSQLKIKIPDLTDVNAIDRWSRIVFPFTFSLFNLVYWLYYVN", "T1 sequence (P18508 39-466)": "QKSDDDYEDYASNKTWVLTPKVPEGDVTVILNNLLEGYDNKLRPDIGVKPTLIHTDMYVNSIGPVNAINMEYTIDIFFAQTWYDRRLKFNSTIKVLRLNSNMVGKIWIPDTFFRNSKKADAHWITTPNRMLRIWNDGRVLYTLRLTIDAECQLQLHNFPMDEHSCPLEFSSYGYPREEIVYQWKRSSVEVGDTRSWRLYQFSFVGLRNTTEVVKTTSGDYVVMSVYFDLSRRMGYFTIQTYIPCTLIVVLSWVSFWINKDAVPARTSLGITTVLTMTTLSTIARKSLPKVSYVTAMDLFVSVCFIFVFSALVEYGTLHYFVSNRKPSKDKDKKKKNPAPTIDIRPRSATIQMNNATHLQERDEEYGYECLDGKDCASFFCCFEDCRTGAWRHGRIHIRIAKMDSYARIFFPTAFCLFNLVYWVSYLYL", "experiment": "GABA-independent displacement of [^3H]EBOB binding, recombinant α6β3γ2", "protocol": "as §2, §3"}, "[11]": {"molecular_target": "recombinant α1β2γ2 GABAARs expressed in HEK293 cells (Rattus norvegicus, UniProt P18508+P62813+P63138)", "sequence (P62813 28-455)": "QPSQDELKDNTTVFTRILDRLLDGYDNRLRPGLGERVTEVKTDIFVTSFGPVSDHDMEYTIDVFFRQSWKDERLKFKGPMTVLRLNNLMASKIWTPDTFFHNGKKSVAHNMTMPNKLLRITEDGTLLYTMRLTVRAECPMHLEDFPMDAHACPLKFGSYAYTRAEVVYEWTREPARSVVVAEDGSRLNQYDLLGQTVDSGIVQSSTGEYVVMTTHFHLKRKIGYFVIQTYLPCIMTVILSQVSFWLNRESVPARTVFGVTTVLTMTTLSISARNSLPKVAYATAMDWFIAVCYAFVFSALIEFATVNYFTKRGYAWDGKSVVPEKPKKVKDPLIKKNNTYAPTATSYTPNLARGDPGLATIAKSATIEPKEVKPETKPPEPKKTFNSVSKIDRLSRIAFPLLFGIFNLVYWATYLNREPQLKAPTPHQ", "sequence (P63138 25-474)": "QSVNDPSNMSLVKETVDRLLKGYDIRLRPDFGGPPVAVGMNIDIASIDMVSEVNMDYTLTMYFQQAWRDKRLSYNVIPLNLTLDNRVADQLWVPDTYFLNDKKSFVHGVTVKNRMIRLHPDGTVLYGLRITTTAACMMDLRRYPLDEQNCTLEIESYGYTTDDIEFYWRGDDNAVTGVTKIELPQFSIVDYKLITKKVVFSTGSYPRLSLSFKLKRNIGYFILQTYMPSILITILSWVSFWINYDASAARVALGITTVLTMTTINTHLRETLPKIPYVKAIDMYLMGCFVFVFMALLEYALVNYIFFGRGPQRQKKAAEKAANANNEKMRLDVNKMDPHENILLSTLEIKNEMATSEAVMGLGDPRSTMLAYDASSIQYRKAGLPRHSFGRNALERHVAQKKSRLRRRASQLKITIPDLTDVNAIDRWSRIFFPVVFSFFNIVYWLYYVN", "sequence (P18508 39-466)": "as the sequence (P18508 39-466) above", "experiment": "AA29504 effect on [^3H]muscimol binding, recombinant α1β2γ2", "conditions": "α1β2γ2, HEK293, 4 concentrations of AA29504", "experimental": "(§6) Human embryonic kidney (HEK) 293 cells were maintained at + 37 °C/10% CO2 in Dulbecco’s Modified Eagle’s Medium (DMEM) (Gibco, Gaithersburg, MD, USA), supplemented with 3.7 g/L NaHCO3, 10% Fetal Bovine Serum (FBS) (Gibco, Gaithersburg, MD, USA), 50,000 U/L penicillin and 50 mg/L streptomycin (Sigma-Aldrich, St Louis, MO, USA). The cells were divided and plated on 10 cm culture dishes for binding assays 24 h before transfection. HEK293 cells were transfected with rat cDNAs (α1, α6, β2, β3, γ2S, δ) in pRK5 plasmids [39] under the control of cytomegalovirus (CMV) promoter using calcium phosphate transfection method essentially as described by Lüddens and Korpi [40]. The plasmids were used in 1:1 and 1:1:1 ratios for transfections containing 2 [(α6) + (β3)] or 3 [(α1 or α6) + (β2 or β3) + (γ2S or δ)] different subunits, respectively (5 μg of each plasmid DNA for a 10 cm plate). The cells were incubated at 37 °C/10% CO2 for 24 h post-transfection. Old culture medium was replaced with fresh medium and the incubation resumed for another 24 h. The cells were harvested 48 h post-transfection. […]\n(§7) Individually pooled triplicate membrane samples (3 total binding and 3 non‐specific binding) were incubated with shaking for 15 min. The effect of AA29504 on binding was determined in the presence of various concentrations of AA29504. […]"}, "[12]": {"test_system": "native GABAARs expressed in WT mice forebrain membranes", "experiment": "AA29504 effect on [^3H]muscimol binding, WT forebrain membranes", "set-up": "species or system mouse", "conditions": "increasing concentrations of AA29504, 15 min, 22 °C", "protocol": "as §1"}, "[13]": {"molecular_target": "recombinant α6β2δ GABAARs expressed in HEK293 cells (Rattus norvegicus, UniProt P18506+P30191+P63138)", "sequence (P30191 20-453)": "as the sequence (P30191 20-453) above", "sequence (P63138 25-474 limits assumed)": "as the sequence (P63138 25-474) above", "sequence (P18506 17-449 limits assumed)": "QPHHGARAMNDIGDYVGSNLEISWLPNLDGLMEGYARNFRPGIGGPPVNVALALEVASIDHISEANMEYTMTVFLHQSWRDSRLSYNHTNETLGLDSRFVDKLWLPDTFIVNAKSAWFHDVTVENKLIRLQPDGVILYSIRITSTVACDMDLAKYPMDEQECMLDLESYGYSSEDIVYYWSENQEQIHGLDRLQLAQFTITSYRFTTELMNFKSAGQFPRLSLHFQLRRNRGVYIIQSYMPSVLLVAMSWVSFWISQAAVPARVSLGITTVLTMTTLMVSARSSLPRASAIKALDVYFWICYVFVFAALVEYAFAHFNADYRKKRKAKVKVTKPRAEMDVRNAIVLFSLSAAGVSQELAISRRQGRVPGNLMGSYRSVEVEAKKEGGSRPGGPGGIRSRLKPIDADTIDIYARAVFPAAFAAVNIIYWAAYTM", "experiment": "AA29504 effect on [^3H]muscimol binding, recombinant α6β2δ", "conditions": "HEK293, 4 concentrations of AA29504", "experimental": "as §6, §7"}, "[14]": {"molecular_target": "T2, recombinant α6β3 GABAARs expressed in HEK293 cells (Rattus norvegicus, UniProt P30191+P63079)", "T2 construct": "expressed in transfected cells; host or cells: HEK293, transient calcium phosphate transfection, pRK5 plasmids", "T2 sequence (P30191 20-453)": "as the sequence (P30191 20-453) above", "T2 sequence (P63079 26-473)": "as the sequence (P63079 26-473) above", "experiment": "GABA-independent displacement of [^3H]EBOB binding, recombinant α6β3", "protocol": "as §2, §3"}, "[15]": {"test_system": "native GABAARs expressed in WT mice forebrain membranes", "experiment": "AA29504 effect on [^3H]GABA binding, WT forebrain membranes", "set-up": "species or system mouse", "conditions": "increasing concentrations of AA29504, 15 min, 22 °C", "protocol": "as §1"}, "[16]": {"molecular_target": "T3, recombinant α6β3δ GABAARs expressed in HEK293 cells (Rattus norvegicus, UniProt P18506+P30191+P63079)", "T3 construct": "expressed in transfected cells; host or cells: HEK293, transient calcium phosphate transfection, pRK5 plasmids, 1:1:1", "T3 sequence (P30191 20-453)": "as the sequence (P30191 20-453) above", "T3 sequence (P63079 26-473)": "as the sequence (P63079 26-473) above", "T3 sequence (P18506 17-449 limits assumed)": "as the sequence (P18506 17-449 limits assumed) above", "experiment": "GABA-independent displacement of [^3H]EBOB binding, recombinant α6β3δ", "protocol": "as §2, §3"}, "[17]": {"molecular_target": "recombinant α6β2γ2 GABAARs expressed in HEK293 cells (Rattus norvegicus, UniProt P18508+P30191+P63138)", "sequence (P30191 20-453)": "as the sequence (P30191 20-453) above", "sequence (P63138 25-474 limits assumed)": "as the sequence (P63138 25-474) above", "sequence (P18508 39-466)": "as the sequence (P18508 39-466) above", "experiment": "AA29504 effect on [^3H]muscimol binding, recombinant α6β2γ2", "conditions": "α6β2γ2, HEK293, 4 concentrations of AA29504", "experimental": "as §6, §7"}, "[18]": {"test_system": "native GABAARs expressed in δKO mice forebrain membranes", "experiment": "AA29504 effect on [^3H]GABA binding, δKO forebrain membranes", "set-up": "species or system mouse", "conditions": "increasing concentrations of AA29504, 15 min, 22 °C", "protocol": "as §1"}, "[19]": {"conditions": "2 nM [^3H]muscimol, 22 °C, absence of AA29504"}, "[20]": {"conditions": "10 µM AA29504, 2 nM [^3H]muscimol, control binding without AA29504"}}, "note": "Read-outs that look alike come from different tables or passages of the source.", "data": [{"smiles": "Oc1noc2c1CCNC2", "note": "[THIP, 4,5,6,7-tetrahydroisoxazolo[5,4-c]pyridin-3-ol]", "values": [{"measurement": "IC50", "setting": "[1]", "value": "200000 ± 110000", "unit": "nM"}, {"measurement": "IC50", "setting": "[2]", "value": "220000 ± 50000", "unit": "nM"}]}, {"smiles": "[3H]C([3H])(N)c1cc(=O)[nH]o1", "note": "[[^3H]muscimol]", "values": [{"measurement": "Kd", "setting": "[3]; with AA29504 (10 µM), 22 °C", "value": "30 ± 3", "unit": "nM"}, {"measurement": "Kd", "setting": "[3]; without AA29504, 22 °C", "value": "53 ± 6", "unit": "nM"}, {"measurement": "Kd", "setting": "[4]; with AA29504 (10 µM), 22 °C, one-site model, read-out: KD", "value": "23 ± 4", "unit": "nM"}, {"measurement": "Kd", "setting": "[4]; without AA29504, 22 °C, read-out: KD, site (1) of two-site model", "value": "4.1 ± 3.6", "unit": "nM"}, {"measurement": "Kd", "setting": "[4]; without AA29504, 22 °C, read-out: KD, site (2) of two-site model (converted)", "value": 40, "unit": "nM"}, {"measurement": "association rate constant Kon", "setting": "[5]; [19]", "value": "5.9 ± 0.6 × 10^8 M^−1 × min^−1"}, {"measurement": "dissociation rate constant Koff", "setting": "[5]; [19]", "value": "0.011 ± 0.0005", "unit": "s⁻¹"}, {"measurement": "association rate constant Kon", "setting": "[6]; [19]", "value": "2.2 ± 0.3 × 10^8 M^−1 × min^−1"}, {"measurement": "dissociation rate constant Koff", "setting": "[6]; [19]", "value": "0.00633 ± 0.00033", "unit": "s⁻¹"}]}, {"smiles": "O=C(Nc1c(-c2cccs2)nc2ccccn12)c1ccc(Cl)cc1", "note": "[DS2, 4-chloro-N-[2-(2-thienyl)imidazo[1,2-a]pyridin-3-yl]benzamide]", "values": [{"measurement": "brain bioavailability", "setting": "[7]", "value": "limited brain bioavailability"}]}, {"smiles": "CCOC(=O)Nc1ccc(NCc2c(C)cc(C)cc2C)cc1N", "note": "[AA29504, [2-amino-4-(2,4,6-trimethylbenzylamino)-phenyl]-carbamic acid ethyl ester]", "values": [{"measurement": "brain concentration", "setting": "[8]", "value": 1000, "unit": "nM"}, {"measurement": "effect on 2 nM [^3H]muscimol binding", "setting": "[9]", "value": "concentration-dependent stimulation"}, {"measurement": "concentration at which GABA-independent radioligand displacement was evident", "setting": "[10]; α6β3γ2, 1 nM [^3H]EBOB", "value": "≥ 300", "unit": "nM"}, {"measurement": "IC50", "setting": "[10]; α6β3γ2, HEK293, 1 nM [^3H]EBOB, no GABA", "value": "11100 ± 1400", "unit": "nM"}, {"measurement": "effect on 2 nM [^3H]muscimol binding", "setting": "[11]", "value": "stimulated"}, {"measurement": "effect on 2 nM [^3H]muscimol binding", "setting": "[12]", "value": "concentration-dependent stimulation"}, {"measurement": "effect on 2 nM [^3H]muscimol binding", "setting": "[13]", "value": "no significant effect"}, {"measurement": "concentration at which GABA-independent radioligand displacement was evident", "setting": "[14]; α6β3, 1 nM [^3H]EBOB", "value": "≥ 100", "unit": "nM"}, {"measurement": "IC50", "setting": "[14]; α6β3, HEK293, 1 nM [^3H]EBOB, no GABA", "value": "400 ± 20", "unit": "nM"}, {"measurement": "effect on 5 nM [^3H]GABA binding", "setting": "[15]", "value": "concentration-dependent stimulation"}, {"measurement": "concentration at which GABA-independent radioligand displacement was evident", "setting": "[16]; 1 nM [^3H]EBOB", "value": "≥ 100", "unit": "nM"}, {"measurement": "IC50", "setting": "[16]; HEK293, 1 nM [^3H]EBOB, no GABA", "value": "1100 ± 200", "unit": "nM"}, {"measurement": "effect on 2 nM [^3H]muscimol binding", "setting": "[17]", "value": "stimulated"}, {"measurement": "effect on 5 nM [^3H]GABA binding", "setting": "[18]", "value": "concentration-dependent stimulation"}, {"measurement": "maximal increased specific [^3H]muscimol binding", "setting": "[5]; [20]", "value": "240 ± 23 % of control binding"}, {"measurement": "maximal increased specific [^3H]muscimol binding", "setting": "[6]; [20]", "value": "166 ± 5 % of control"}]}]}
